Assay results: the supplement of paper PMC10307832

How the values were obtained:
Assay in all cases: relative viability (nuclei count vs DMSO), 5 days (fraction); higher = more cells survive
Dabrafenib + Bortezomib = compound: CC(C)(C)c1nc(-c2cccc(NS(=O)(=O)c3c(F)cccc3F)c2F)c(-c2ccnc(N)n2)s1 [Dabrafenib] + CC(C)C[C@H](NC(=O)[C@H](Cc1ccccc1)NC(=O)c1cnccn1)B(O)O [Bortezomib] (partner 0.002 µM)
How it was run: (§1)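 Five library-drug doses in √10 steps were combined with a fixed anchor-drug dose, or a single drug was given alone, by pin tool to lung cancer cell lines in 1536-well plates the day after seeding. Nuclei were stained and counted after 5 days. Relative viability is the nuclei count in treated wells over that in vehicle wells, taken as the median of duplicate plates.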

Dabrafenib + Decitabine = compound: CC(C)(C)c1nc(-c2cccc(NS(=O)(=O)c3c(F)cccc3F)c2F)c(-c2ccnc(N)n2)s1 [Dabrafenib] + Nc1ncn([C@H]2C[C@H](O)[C@@H](CO)O2)c(=O)n1 [Decitabine] (partner 2 µM)
How it was run: as §1

VX-702 + Luminespib = compound: NC(=O)c1ccc(N(C(N)=O)c2c(F)cccc2F)nc1-c1ccc(F)cc1F [VX-702] + CCNC(=O)c1noc(-c2cc(C(C)C)c(O)cc2O)c1-c1ccc(CN2CCOCC2)cc1 [Luminespib] (partner 0.01 µM)
How it was run: as §1

VX-702 + Dasatinib = compound: NC(=O)c1ccc(N(C(N)=O)c2c(F)cccc2F)nc1-c1ccc(F)cc1F [VX-702] + Cc1nc(Nc2ncc(C(=O)Nc3c(C)cccc3Cl)s2)cc(N2CCN(CCO)CC2)n1 [Dasatinib] (partner 0.075 µM)
How it was run: as §1

| Cell Line | relative viability (Dabrafenib + Bortezomib; first compound 0.009487 µM) | relative viability (Dabrafenib + Bortezomib; first compound 0.03 µM) | relative viability (Dabrafenib + Bortezomib; first compound 0.09487 µM) | relative viability (Dabrafenib + Bortezomib; first compound 0.3 µM) | relative viability (Dabrafenib + Decitabine; first compound 0.003 µM) | relative viability (Dabrafenib + Decitabine; first compound 0.009487 µM) | relative viability (Dabrafenib + Decitabine; first compound 0.03 µM) | relative viability (Dabrafenib + Decitabine; first compound 0.09487 µM) | relative viability (Dabrafenib + Decitabine; first compound 0.3 µM) | relative viability (VX-702 + Luminespib; first compound 0.02 µM) | relative viability (VX-702 + Luminespib; first compound 0.2 µM) | relative viability (VX-702 + Luminespib; first compound 0.6325 µM) | relative viability (VX-702 + Luminespib; first compound 2 µM) | relative viability (VX-702 + Dasatinib; first compound 0.02 µM) | relative viability (VX-702 + Dasatinib; first compound 0.2 µM) | relative viability (VX-702 + Dasatinib; first compound 0.6325 µM) | relative viability (VX-702 + Dasatinib; first compound 2 µM) | relative viability (Dabrafenib + Bortezomib; first compound 0.003 µM) |
| --- | --- | --- | --- | --- | --- | --- | --- | --- | --- | --- | --- | --- | --- | --- | --- | --- | --- | --- |
| A-427 | 0.969 | 0.939 | 0.821 | 0.987 | 0.569 | 0.562 | 0.569 | 0.551 | 0.504 | 0.715 | 0.919 | 0.823 | 0.774 | 0.689 | 0.698 | 0.796 | 0.584 |  |
| NCI-H3122 | 1.01 | 1.12 | 1.06 | 1.1 | 0.567 | 0.404 | 0.397 | 0.429 | 0.373 | 0.0998 | 0.0746 | 0.0992 | 0.0951 | 0.921 | 0.84 | 0.752 | 0.789 | 1.04 |
| PC-14 | 0.846 | 0.817 | 0.919 | 1.03 | 0.172 | 0.276 | 0.24 | 0.219 | 0.147 | 0.138 | 0.171 | 0.158 | 0.175 | 0.337 | 0.323 | 0.295 | 0.188 | 0.968 |
| NCI-H1915 | 0.99 | 0.899 | 0.584 | 0.502 | 0.264 | 0.262 | 0.256 | 0.255 | 0.243 | 0.84 | 0.739 | 0.765 | 0.916 | 0.328 | 0.282 | 0.281 | 0.327 | 0.975 |
| NCI-H1793 |  |  |  |  |  | 0.531 |  | 0.521 | 0.418 | 0.165 | 0.217 | 0.213 | 0.192 | 0.412 | 0.392 | 0.382 | 0.366 |  |
| NCI-H1650 | 0.214 | 0.24 | 0.177 | 0.217 | 0.415 | 0.389 | 0.395 | 0.387 | 0.329 | 0.19 | 0.193 | 0.216 | 0.226 | 0.385 | 0.346 | 0.334 | 0.265 | 0.183 |
| CAL-12T | 1.18 | 1.06 | 1.12 | 1.08 |  |  |  |  |  | 0.565 | 0.574 | 0.318 | 0.363 | 0.409 | 0.539 | 0.273 | 0.463 | 0.623 |
| HCC-15 | 0.971 | 0.997 | 0.891 | 0.814 | 0.586 | 0.677 | 0.665 | 0.669 | 0.636 | 0.26 | 0.295 | 0.288 | 0.349 | 0.667 | 0.501 | 0.602 | 0.639 | 1.06 |
| NCI-H1703 | 0.496 | 0.409 | 0.28 | 0.43 |  |  |  |  |  |  |  |  |  |  |  |  |  | 0.422 |
| Calu-6 | 1.03 | 0.844 | 0.712 | 0.824 |  |  |  |  |  |  |  |  |  |  |  |  |  | 1.07 |
| NCI-H1623 |  |  |  |  |  |  |  |  |  | 0.469 | 0.496 | 0.477 | 0.465 | 0.515 | 0.453 | 0.422 | 0.5 |  |
